Results taken from publication PMC7571155, “Design, Synthesis and Biological Investigation of Flavone Derivatives as Potential Multi-Receptor Atypical Antipsychotics” (Molecules, 2020).
Like-named read-outs stand apart in the source and are kept apart here.

Key:
D2 receptor = D2 receptor (Rattus norvegicus, UniProt P61169); assay: D2 receptor radioligand binding (3H-spiperone); conditions: 3H-spiperone, mean ± SEM of three experiments
5-HT2A receptor = 5-HT2A receptor (Rattus norvegicus, UniProt P14842); assay: 5-HT2A receptor radioligand binding (3H-ketanserin); conditions: rat brain cortex, 3H-ketanserin, mean ± SEM of three experiments
Sequence of 5-HT2A receptor (P14842 whole entry): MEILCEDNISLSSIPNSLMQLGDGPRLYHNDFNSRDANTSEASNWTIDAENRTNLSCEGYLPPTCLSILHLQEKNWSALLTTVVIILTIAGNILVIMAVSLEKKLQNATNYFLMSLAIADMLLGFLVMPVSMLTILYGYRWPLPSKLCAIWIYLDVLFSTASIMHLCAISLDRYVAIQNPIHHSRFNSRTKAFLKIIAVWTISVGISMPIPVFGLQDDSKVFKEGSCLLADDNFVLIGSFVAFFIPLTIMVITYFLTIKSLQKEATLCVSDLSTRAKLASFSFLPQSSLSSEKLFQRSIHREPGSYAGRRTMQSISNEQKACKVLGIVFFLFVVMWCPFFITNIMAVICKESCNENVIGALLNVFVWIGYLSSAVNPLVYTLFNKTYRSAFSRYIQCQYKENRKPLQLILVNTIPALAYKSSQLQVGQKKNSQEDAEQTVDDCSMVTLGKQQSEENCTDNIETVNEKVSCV

D2L receptor = target: T1, D2L receptor (Homo sapiens, UniProt P14416); assay: Intrinsic activity, FLIPR calcium assay, HEK293/D2L; type: cell-based
T1 construct: expressed in transfected cells; host or cells: HEK293
T1 sequence (P14416 whole entry): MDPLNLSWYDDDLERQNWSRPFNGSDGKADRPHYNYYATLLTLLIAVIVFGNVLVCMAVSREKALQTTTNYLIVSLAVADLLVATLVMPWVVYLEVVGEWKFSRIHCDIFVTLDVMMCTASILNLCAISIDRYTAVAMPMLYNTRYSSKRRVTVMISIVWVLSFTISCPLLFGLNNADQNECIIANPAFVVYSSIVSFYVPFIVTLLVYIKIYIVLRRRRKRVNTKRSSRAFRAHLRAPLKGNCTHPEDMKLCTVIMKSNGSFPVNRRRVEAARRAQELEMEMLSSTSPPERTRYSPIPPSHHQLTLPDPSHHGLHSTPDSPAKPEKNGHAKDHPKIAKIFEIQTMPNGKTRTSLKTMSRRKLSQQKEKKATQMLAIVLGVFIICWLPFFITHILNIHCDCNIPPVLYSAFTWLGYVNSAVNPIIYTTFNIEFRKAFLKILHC

[1] = read-out: Receptor Affinity Ki ± SEM D2, rat striatum
[2] = read-out: Receptor Affinity Ki ± SEM 5-HT2A
[3] = Receptor Affinity Ki ± SEM D2, rat striatum
[4] = Receptor Affinity Ki ± SEM 5-HT2A

Sequence of D2 receptor (P61169 whole entry): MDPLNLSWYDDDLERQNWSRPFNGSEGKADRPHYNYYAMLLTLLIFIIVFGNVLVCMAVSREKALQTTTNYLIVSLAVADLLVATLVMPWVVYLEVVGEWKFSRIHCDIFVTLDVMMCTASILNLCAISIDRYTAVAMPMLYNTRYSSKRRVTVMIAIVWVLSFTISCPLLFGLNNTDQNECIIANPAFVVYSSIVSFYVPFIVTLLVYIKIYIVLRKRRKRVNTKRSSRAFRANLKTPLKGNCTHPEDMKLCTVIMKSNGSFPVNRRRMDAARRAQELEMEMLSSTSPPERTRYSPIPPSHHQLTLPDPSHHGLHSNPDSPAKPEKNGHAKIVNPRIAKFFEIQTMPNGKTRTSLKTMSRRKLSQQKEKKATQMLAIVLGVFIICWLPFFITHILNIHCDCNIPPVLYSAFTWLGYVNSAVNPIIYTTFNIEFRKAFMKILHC

Row | Compound | Ki (D2 receptor; [3]) [nM] | Ki (5-HT2A receptor; [4]) [nM] | melting point [°C] | also measured
1 | 7-(4-(4-(6-Fluorobenzo[d]isoxazol-3-yl)piperidin-1-yl)butoxy)-5-methylchroman-4-one [Compound 13b] |  |  |  | Ki (D2 receptor; [1]): 28.9 ± 3.4 nM; Ki (5-HT2A receptor; [2]): 10.5 ± 1.3 nM
2 | 7-(4-(4-(6-Fluorobenzo[d]isoxazol-3-yl)piperidin-1-yl)butoxy)-8-methylchroman-4-one [Compound 13d] |  |  |  | Ki (D2 receptor; [1]): 22.9 ± 3.1 nM; Ki (5-HT2A receptor; [2]): 13.7 ± 1.9 nM
3 | CC1(C)CC(=O)c2ccc(OCCCCN3CCN(c4ccccc4)CC3)cc2O1 [Compound 6a, 2,2-Dimethyl-7-(4-(4-phenylpiperazin-1-yl)butoxy) chroman-4-one] | 553 ± 68.7 | 89.8 ± 11.3 | 131 to 133 | 
4 | CC1(C)CC(=O)c2ccc(OCCCCN3CCN(c4ccccc4F)CC3)cc2O1 [Compound 6b, 7-(4-(4-(2-Fluorophenyl)piperazin-1-yl)butoxy)-2,2-dimethylchroman-4-one] | 777 ± 84.7 | 72.5 ± 8.4 | 135 to 137 | 
5 | CC1(C)CC(=O)c2ccc(OCCCCN3CCN(c4cccc(C(F)(F)F)c4)CC3)cc2O1 [Compound 6c, 2,2-Dimethyl-7-(4-(4-(3-(trifluoromethyl)phenyl)piperazin-1-yl)butoxy) chroman-4-one] | 1130 ± 108 | 147 ± 16.9 | 139 to 140 | 
6 | COc1ccccc1N1CCN(CCCCOc2ccc3c(c2)OC(C)(C)CC3=O)CC1 [Compound 6d, 7-(4-(4-(2-Methoxyphenyl)piperazin-1-yl)butoxy)-2,2-dimethylchroman-4-one] | 2350 ± 317 | 86.8 ± 5.6 | 128 to 130 | 
7 | CC1(C)CC(=O)c2ccc(OCCCCN3CCN(c4ccccn4)CC3)cc2O1 [Compound 6e, 2,2-Dimethyl-7-(4-(4-(pyridin-2-yl)piperazin-1-yl)butoxy) chroman-4-one] | 4590 ± 510 | 722 ± 64.9 | 127 to 129 | 
8 | CC1(C)CC(=O)c2ccc(OCCCCN3CCN(c4ncccn4)CC3)cc2O1 [Compound 6f, 2,2-Dimethyl-7-(4-(4-(pyrimidin-2-yl)piperazin-1-yl)butoxy) chroman-4-one] | > 10000 | 1140 ± 152 | 128 to 131 | 
9 | CC1(C)CC(=O)c2ccc(OCCCCN3CCN(Cc4ccc5c(c4)OCO5)CC3)cc2O1 [Compound 6g, 7-(4-(4-(Benzo[d] [1, 3]dioxol-5-ylmethyl)piperazin-1-yl)butoxy)-2,2-dimethylchroman-4-one] | 1140 ± 140 | 380 ± 39.1 | 112 to 114 | 
10 | CC1(C)CC(=O)c2ccc(OCCCCN3CCN(c4cccc5sccc45)CC3)cc2O1 [Compound 6h, 7-(4-(4-(Benzo[b]thiophen-4-yl)piperazin-1-yl)butoxy)-2,2-dimethylchroman-4-one] | 43.1 ± 5.7 | 55.2 ± 4.9 |  | 
11 | CC1(C)CC(=O)c2ccc(OCCCCN3CCN(c4nsc5ccccc45)CC3)cc2O1 [Compound 6i, 7-(4-(4-(Benzo[d]isothiazol-3-yl)piperazin-1-yl)butoxy)-2,2-dimethylchroman-4-one] | 26.2 ± 2.7 | 19.5 ± 2.2 | 119 to 120 | 
12 | COc1ccccc1N1CCN(CCCOc2ccc3c(c2)OC(C)(C)CC3=O)CC1 [Compound 6k, 7-(3-(4-(2-Methoxyphenyl)piperazin-1-yl)propoxy)-2,2-dimethylchroman-4-one] | 3160 ± 466 | 33.1 ± 4.5 | 103 to 105 | 
13 | CC1(C)CC(=O)c2ccc(OCCCN3CCC(c4noc5cc(F)ccc45)CC3)cc2O1 [Compound 6l, 7-(3-(4-(6-Fluorobenzo[d]isoxazol-3-yl)piperidin-1-yl)propoxy)-2,2-dimethylchroman-4-one] | 18.6 ± 2.3 | 6.7 ± 0.7 | 116 to 118 | 
14 | COc1ccccc1N1CCN(CCCOc2ccc3c(c2)OC2(CCCC2)CC3=O)CC1 [Compound 9a, 7-(3-(4-(2-Methoxyphenyl)piperazin-1-yl)propoxy) spiro[chromane-2,1′-cyclopentan]-4-one] | 3850 ± 328 | 72 ± 6.8 | 128 to 130 | 
15 | COc1ccccc1N1CCN(CCCCOc2ccc3c(c2)OC2(CCCC2)CC3=O)CC1 [Compound 9b, 7-(4-(4-(2-Methoxyphenyl)piperazin-1-yl)butoxy) spiro[chromane-2,1′-cyclopentan]-4-one] | 3790 ± 409 | 61.7 ± 8.6 | 96 to 98 | 
16 | O=C1CC2(CCCC2)Oc2cc(OCCCN3CCC(c4noc5cc(F)ccc45)CC3)ccc21 [Compound 9c, 7-(3-(4-(6-Fluorobenzo[d]isoxazol-3-yl)piperidin-1-yl)propoxy)spiro[chromane-2,1′-cyclopentan]-4-one] | 18.9 ± 2.1 | 8.3 ± 0.9 | 91 to 93 | 
17 | COc1ccccc1N1CCN(CCCOc2ccc3c(c2)OC2(CCCCC2)CC3=O)CC1 [Compound 9e, 7-(3-(4-(2-Methoxyphenyl)piperazin-1-yl)propoxy)spiro[chromane-2,1′-cyclohexan]-4-one] | 2050 ± 229 | 93.5 ± 7.9 | 105 to 107 | 
18 | O=C1CC2(CCCCC2)Oc2cc(OCCCN3CCN(c4ccccc4C(F)(F)F)CC3)ccc21 [Compound 9f, 7-(3-(4-(2-(Trifluoromethyl)phenyl)piperazin-1-yl)propoxy)spiro[chromane-2,1′-cyclohexan]-4-one] | 915 ± 90.3 | 76.7 ± 9.4 | 138 to 140 | 
19 | Cc1cccc(N2CCN(CCCCOc3ccc4c(c3)OC3(CCCCC3)CC4=O)CC2)c1C [Compound 9i, 7-(4-(4-(2,3-Dimethylphenyl)piperazin-1-yl)butoxy)spiro[chromane-2,1′-cyclohexan]-4-one] | 154 ± 19.6 | 67.5 ± 7.4 | 138 to 140 | 
20 | O=C1CC2(CCCCC2)Oc2cc(OCCCCN3CCN(c4cccc(Cl)c4Cl)CC3)ccc21 [Compound 9j, 7-(4-(4-(2,3-Dichlorophenyl)piperazin-1-yl)butoxy)spiro[chromane-2,1′-cyclohexan]-4-one] | 81.7 ± 9.7 | 35.8 ± 5.2 | 119 to 121 | 
21 | O=C1CC2(CCCCC2)Oc2cc(OCCCCN3CCC(c4nsc5ccccc45)CC3)ccc21 [Compound 9k, 7-(4-(4-(Benzo[d]isothiazol-3-yl)piperidin-1-yl)butoxy)spiro[chromane-2,1′-cyclohexan]-4-one] | 35.1 ± 4.7 | 75.6 ± 8.6 | 129 to 130 | 
22 | O=C1CCOc2cc(OCCCCN3CCC(c4noc5cc(F)ccc45)CC3)ccc21 [Compound 13a, 7-(4-(4-(6-Fluorobenzo[d]isoxazol-3-yl)piperidin-1-yl)butoxy)chroman-4-one] | 22.5 ± 2.6 | 9.6 ± 0.8 |  | 
23 | Cc1cc2c(cc1OCCCCN1CCC(c3noc4cc(F)ccc34)CC1)OCCC2=O [Compound 13c, 7-(4-(4-(6-Fluorobenzo[d]isoxazol-3-yl)piperidin-1-yl)butoxy)-6-methylchroman-4-one] | 25.8 ± 3.9 | 15.9 ± 2.3 | 91 to 93 | 
24 | CC1CC(=O)c2ccc(OCCCCN3CCC(c4noc5cc(F)ccc45)CC3)cc2O1 (centres unmarked) [Compound 16a, 7-(4-(4-(6-Fluorobenzo[d]isoxazol-3-yl)piperidin-1-yl)butoxy)-2-methylchroman-4–one] | 19.7 ± 2.7 | 7.9 ± 0.5 | 95 to 97 | 
25 | CC1CC(=O)c2ccc(OCCCCN3CCC(c4noc5cc(F)ccc45)CC3)c(Cl)c2O1 (centres unmarked) [Compound 16b, 8-Chloro-7-(4-(4-(6-fluorobenzo[d]isoxazol-3-yl)piperidin-1-yl)butoxy)-2-methylchroman-4-one] | 21.4 ± 2.4 | 8.1 ± 1.1 | 99 to 101 | 
26 | CC1Oc2cc(OCCCCN3CCC(c4noc5cc(F)ccc45)CC3)ccc2C(=O)C1C (centres unmarked) [Compound 21, 7-(4-(4-(6-fluorobenzo[d]isoxazol-3-yl)piperidin-1-yl)butoxy)-2,3-dimethylchroman-4-one] | 28.4 ± 3.2 | 2.4 ± 1.9 | 82 to 84 | 
27 | CN1CCc2cc(Cl)c(O)cc2[C@@H](c2ccccc2)C1 [SCH23390] |  |  |  | IC50 (D2L receptor; D2L, antagonist mode, read-out: IC50): 31.6 nM; inhibition at 10 µM (D2L receptor; HEK293, read-out: Inhibition (10 μM, %), D2L, antagonist mode, 10 μM, n = 3): 99.1 ± 3.2%
28 | NCCc1ccc(O)c(O)c1 [dopamine] |  |  |  | Activation (10 μM, %) (D2L receptor; D2L, agonist mode, 10 μM, n = 3): 101.3 ± 5.3%
